Our source for the melting point values is US8399493B2, “Pyridinone derivatives and their use as positive allosteric modulators of mGluR2-receptors” (Janssen Pharmaceuticals, Inc., priority 2004, dated 2013).

Usually melting point stands for the temperature, or range, at which the solid turns liquid. On to `CC(=O)NCCOCc1ccc(-c2ccc(=O)n(Cc3ccc(Cl)cc3)c2)cc1` [2-42, N-(2-(4-(1-(4-Chlorobenzyl)-6-oxo-1,6-dihydropyridin-3-yl)benzyloxy)ethyl)acetamide], for which the melting point is 152 °C. For `CC(=O)Nc1cccc(-c2ccc(=O)n(Cc3ccc(Cl)cc3F)c2)c1` [6-57] the value was 194 °C; for `CNC(=O)Cc1ccc(-c2ccc(=O)n(Cc3ccc(Cl)cc3)c2)cc1` [2-44, 2-(4-(1-(4-Chlorobenzyl)-1,6-dihydro-6-oxopyridin-3-yl)phenyl)-N-methylacetamide], 183 °C.

In the case of `CC(=O)c1ccc(-c2ccc(=O)n(Cc3ccc(Cl)cc3)c2)cc1` [2-30], the melting point came to 162 °C.

With `CC(C)COCc1ccc(-c2ccc(=O)n(Cc3ccc(Cl)cc3)c2)cc1` [2-26], the melting point was 91 °C. For `O=c1ccc(-c2cc(F)cc(F)c2)cn1Cc1ccccc1` [1-09] the value was 98 °C; for `Cc1ccc(-c2ccc(=O)n(Cc3ccccc3)c2)cc1` [1-03], 110 °C; for `CSc1ccc(-c2ccc(=O)n(Cc3ccc(Cl)cc3)c2)cc1` [2-52], 132 °C. On to `COC(=O)CCc1ccc(-c2ccc(=O)n(Cc3ccc(Cl)cc3)c2)cc1` [2-36], for which the melting point was 105 °C. In the case of `CS(=O)(=O)NCc1cccc(-c2ccc(=O)n(Cc3ccc(Cl)cc3F)c2)c1` [6-72], the melting point was 110 °C. `CC(C)(O)c1ccc(-c2ccc(=O)n(Cc3ccc(Cl)cc3)c2)cc1` [2-15, 1-(4-Chlorobenzyl)-5-(4-(2-hydroxypropan-2-yl)phenyl)pyridin-2(1H)-one]: the melting point was 157 °C.

Compound `O=c1ccc(-c2cccc(-c3nn[nH]n3)c2)cn1Cc1ccc(Cl)cc1F` [6-67] yielded a melting point of 240 °C. As to `C[Si](C)(C)c1ccc(-c2ccc(=O)n(Cc3ccccc3)c2)cc1`, the melting point was found to be 132 °C.

As for `O=c1ccc(-c2ccc(OCc3ccco3)cc2)cn1Cc1ccc(Cl)cc1F` [6-37], the melting point was found to be 114 °C. For `COc1ccc(-c2ccc(=O)n(Cc3nc4cc(F)ccc4o3)c2)cc1` [4-51, 1-((5-Fluorobenzo[d]oxazol-2-yl)methyl)-5-(4-methoxyphenyl)-pyridin-2(1H)-one] the value was 115 °C; for `COc1ccc(-c2ccc(=O)n(Cc3ccc(Cl)cc3)c2)c(F)c1` [2-11], 89 °C; for `COC(=O)c1ccc(-c2ccc(=O)n(Cc3ccc(Cl)cc3)c2)cc1` [2-33], 175 °C. `Cl.Nc1ccc(-c2ccc(=O)n(Cc3ccc(Cl)cc3F)c2)cc1` displayed a melting point of 266 °C. `COc1ccc(-c2ccc(=O)n(Cc3ccc(F)cc3F)c2)cc1` [4-12]: the melting point was 109 °C. `O=c1ccc(-c2cnn(Cc3ccccc3)c2)cn1Cc1ccc(Cl)cc1` [2-58] returned a melting point of 140 to 144 °C. Compound `COc1ccc(-c2ccc(=O)n(Cc3ccc(C#N)cc3)c2)cc1` [4-30] returned a melting point of 119 to 120 °C. Turning to `COc1ccc(-c2ccc(=O)n(Cc3nc4ccccc4s3)c2)cc1` [4-53], the melting point was determined as 121 °C.

In turn, `COCCNc1ccc(-c2ccc(=O)n(Cc3ccc(Cl)cc3)c2)cc1` [2-40] came in with a melting point of 106 °C. For `COc1ccc(-c2ccc(=O)n(Cc3ccc(Cl)cc3)c2)cc1N` [2-37] the value was 175 °C. Turning to `O=c1ccc(-c2ccc3[nH]ccc3c2)cn1Cc1ccccc1` [1-30], the melting point worked out at 93 °C. `CN(C)CCCOc1ccc(-c2ccc(=O)n(Cc3ccc(Cl)cc3F)c2)cc1` [6-45] yielded a melting point of 104 °C. Consider `Cc1nc(COc2ccc(-c3ccc(=O)n(Cc4ccc(Cl)cc4F)c3)cc2)cs1` [6-66], for which the melting point was determined as 90 °C. For `N#CCOc1ccc(-c2ccc(=O)n(Cc3ccc(Cl)cc3F)c2)cc1` [6-46, 2-(4-(1-(4-Chloro-2-fluorobenzyl)-6-oxo-1,6-dihydropyridin-3-yl)-phenoxy)acetonitrile], the melting point turned out to be 160 °C. Regarding `CC(=O)N(CCCOc1ccc(-c2ccc(=O)n(Cc3ccc(Cl)cc3F)c2)cc1)C(C)=O` [6-56], the melting point turned out to be 131 °C. `CC(C)COc1ccc(-c2ccc(=O)n(Cc3ccc(Cl)cc3F)c2)cc1` [6-33] had a melting point of 88 °C.

The compound `CCc1ccc(-c2ccc(=O)n(Cc3ccccc3)c2)cc1` [1-04] yielded a melting point of 80 °C. Compound `CCOCc1ccc(-c2ccc(=O)n(Cc3ccc(Cl)cc3)c2)cc1` [2-25, 1-(4-Chlorobenzyl)-5-(4-(ethoxymethyl)phenyl)pyridin-2(1H)-one] returned a melting point of 109 °C.

`COc1ccc(-c2ccc(=O)n(Cc3nc4c(F)cccc4s3)c2)cc1` [4-54]: the melting point came out at 126 °C. For `O=c1ccc(-c2ccc(Cl)c(Cl)c2)cn1Cc1ccccc1` [1-12] the value was 134 °C; for `COCc1ccc(Cn2cc(-c3ccc(OC)cc3)ccc2=O)cc1` [4-25, 1-(4-(Methoxymethyl)benzyl)-5-(4-methoxyphenyl)pyridin-2(1H)-one], 72 °C; for `Nc1cccc(-c2ccc(=O)n(Cc3ccc(Cl)cc3F)c2)c1` [6-22], 70 °C.

`CC(=O)NCc1ccc(-c2ccc(=O)n(Cc3ccc(Cl)cc3F)c2)cc1` [6-61] had a melting point of 150 °C.

`Cc1ccc(-c2ccc(=O)n(Cc3ccccc3)c2)cc1C` [1-06]: the melting point worked out at 118 °C.

The compound `COc1ccc(-c2ccc(=O)n(Cc3ccc(Cl)cc3F)c2)cc1C` [6-28] came in with a melting point of 104 °C. For `CCOc1ccccc1-c1ccc(=O)n(Cc2ccc(Cl)cc2)c1` [2-20] the value was 120 to 121 °C; for `CC(=O)c1ccc(-c2ccc(=O)n(Cc3ccccc3)c2)cc1` [1-23], 118 °C; for `O=c1ccc(-c2ccc(O)cc2)cn1Cc1ccccc1` [1-13], 202 °C. `COc1ccc(-c2ccc(=O)n(Cc3ccc(C)cc3)c2)cc1` [4-06] came in with a melting point of 123 to 124 °C. In the case of `COc1ccc(-c2ccc(=O)n(Cc3ccc(Cl)cc3)c2)cn1` [2-62], the melting point stood at 191 °C.

In the case of `O=C1CCCN1CCOc1ccc(-c2ccc(=O)n(Cc3ccc(Cl)cc3F)c2)cc1` [6-62], the melting point was 180 °C. For the compound `COc1ccc(-c2ccc(=O)n(Cc3cccc(F)c3)c2)cc1` [4-09], the melting point turned out to be 89 °C. Consider `CC(C)Oc1ccc(-c2ccc(=O)n(Cc3ccc(Cl)cc3)c2)cc1` [2-21], for which the melting point worked out at 118 °C. For `COc1ccc(-c2ccc(=O)n(Cc3cnc(C)s3)c2)cc1` [4-52] the value was 127 to 130 °C; for `O=c1ccc(-c2cccc([N+](=O)[O-])c2)cn1Cc1ccccc1` [1-27], 149 °C. As to `COc1ccc(-c2ccc(=O)n(Cc3ccc(Cl)nc3)c2)cc1` [4-44], the melting point came out at 135 °C. `CC(=O)COc1ccc(-c2ccc(=O)n(Cc3ccc(Cl)cc3F)c2)cc1` [6-40, 1-(4-Chloro-2-fluorobenzyl)-5-(4-(2-oxopropoxy)phenyl)pyridin-2(1H)-one] showed a melting point of 127 °C. With `O=c1ccc(-c2ccc(Cc3nn[nH]n3)cc2)cn1Cc1ccc(Cl)cc1` [2-51, 5-(4-((2H-Tetrazol-5-yl)methyl)phenyl)-1-(4-chlorobenzyl)pyridin-2(1H)-one], the melting point worked out at 231 °C.
